{
  "source": "paper PMC8708872",
  "about": "“Discovery of a Novel Template, 7-Substituted 7-Deaza-4′-Thioadenosine Derivatives as Multi-Kinase Inhibitors” (Pharmaceuticals, 2021)",
  "key": {"[1]": {"target": "T1, CYP1A2 (Homo sapiens, UniProt P05177)", "T1 construct": "Human liver microsomes (0.25 mg/mL); from tissue; host or cells: human liver microsomes", "T1 sequence (P05177 whole entry)": "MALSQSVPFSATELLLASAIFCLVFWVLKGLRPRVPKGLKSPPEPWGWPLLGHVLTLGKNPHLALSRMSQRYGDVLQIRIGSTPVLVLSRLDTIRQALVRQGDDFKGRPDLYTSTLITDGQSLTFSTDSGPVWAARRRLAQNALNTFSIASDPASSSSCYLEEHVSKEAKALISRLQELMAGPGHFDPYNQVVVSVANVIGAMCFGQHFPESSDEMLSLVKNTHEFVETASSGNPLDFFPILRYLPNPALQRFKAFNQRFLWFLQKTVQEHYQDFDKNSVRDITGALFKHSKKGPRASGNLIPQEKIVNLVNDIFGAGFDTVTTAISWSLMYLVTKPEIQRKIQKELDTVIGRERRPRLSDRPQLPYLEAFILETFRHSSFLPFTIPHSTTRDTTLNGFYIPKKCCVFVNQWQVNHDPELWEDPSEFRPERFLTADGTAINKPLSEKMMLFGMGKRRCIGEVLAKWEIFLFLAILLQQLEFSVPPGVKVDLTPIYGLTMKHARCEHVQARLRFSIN", "assay": "CYP inhibition assay", "type": "in vitro ADME", "conditions": "human liver microsomes", "procedure": "(§1) Human liver microsomes (0.25 mg/mL), 0.1 M phosphate buffer (pH 7.4), a cocktail of five […] substrates (Phenacetin 50 μM, Diclofenac 10 μM, S-mephenytoin 100 μM, Dextromethorphan 5 μM, Midazolam 2.5 μM), and test compound (10 μM concentration) was pre-incubated for 5 min at 37 °C. NADPH generation system solution was added and incubated for 15 min at 37 °C. In order to terminate the reaction, acetonitrile solution containing an internal standard (Terfenadine) was added and centrifuged for 5 min (14,000× g […], 4 °C). The supernatant was injected into the LC-MS/MS system to analyze the metabolites of the substrates simultaneously. Metabolites of each substrate produced during the reaction were analyzed using the Shimadzu Nexera XR system and TSQ vantage (Thermo). Kinetex C18 column (2.1 × 100 mm, 2.6 μm particle size; Phenomenex, USA) was used for HPLC. The mobile phase used contained 0.1% formic acid in distilled water (A) and 0.1% formic acid containing acetonitrile (B). The generated metabolites were quantified using MRM (Multiple Reaction Monitoring) and Xcalibur (version 1.6.1) was used for data analysis."}, "[2]": {"target": "T2, CYP2C9 (Homo sapiens, UniProt P11712)", "T2 construct": "Human liver microsomes (0.25 mg/mL); from tissue; host or cells: human liver microsomes", "assay": "CYP inhibition assay", "type": "in vitro ADME", "conditions": "human liver microsomes", "procedure": "as §1"}, "[3]": {"target": "T3, CYP2C19 (Homo sapiens, UniProt P33261)", "T3 construct": "Human liver microsomes (0.25 mg/mL); from tissue; host or cells: human liver microsomes", "T3 sequence (P33261 whole entry)": "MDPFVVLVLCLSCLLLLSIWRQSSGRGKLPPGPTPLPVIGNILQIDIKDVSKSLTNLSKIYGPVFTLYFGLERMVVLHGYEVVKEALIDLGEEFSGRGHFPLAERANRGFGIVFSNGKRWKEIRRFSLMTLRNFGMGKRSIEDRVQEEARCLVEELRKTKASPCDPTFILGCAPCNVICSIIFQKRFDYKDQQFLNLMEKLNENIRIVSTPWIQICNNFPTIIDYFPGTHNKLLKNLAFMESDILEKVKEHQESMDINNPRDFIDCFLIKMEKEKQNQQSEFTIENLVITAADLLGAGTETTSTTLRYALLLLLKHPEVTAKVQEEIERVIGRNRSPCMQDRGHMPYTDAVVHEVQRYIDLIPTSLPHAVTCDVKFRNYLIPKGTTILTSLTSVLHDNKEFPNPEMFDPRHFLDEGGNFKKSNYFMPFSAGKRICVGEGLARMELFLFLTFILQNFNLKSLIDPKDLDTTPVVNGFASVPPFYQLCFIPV", "assay": "CYP inhibition assay", "type": "in vitro ADME", "conditions": "human liver microsomes", "procedure": "as §1"}, "[4]": {"system": "MDA-MB-231", "assay": "SRB cell proliferation inhibition assay", "type": "cell-based", "conditions": "human breast cancer cells, 72 h", "procedure": "(§2) Human lung cancer cells (A549), colorectal cancer (HCT116) cells, breast cancer cells (MDA-MB-231), liver cancer cells (SK-HEP-1), and prostate cancer cells (PC-3) were purchased from the American Type Culture Collection (Manassas, VA, USA). Human gastric cancer cells (SNU-638) were purchased from the Korean Cell Line Bank (Seoul, Korea). Cells were cultured in medium (Dulbecco’s modified Eagle’s medium for MDA-MB-231 and SK-HEP-1 cells; Roswell Park Memorial Institute 1640 for A549, HCT116, SNU-638, PC-3 cells) supplemented with penicillin-streptomycin and 10% fetal bovine serum at 37 °C in a humidified incubator with 5% carbon dioxide. Cells were seeded at a density of 4–7 × 10^4 cells/mL in 96-well culture plates, and then treated with indicated compounds for 72 h. At the end of the experiment, cells were fixed with 10% trichloroacetic acid (TCA) solution and subjected to sulforhodamine B (SRB) assay to determine cell proliferation. The percentage of cell proliferation was calculated with the following formula:Cell proliferation (%) = 100 × [(A treated − A zero day)/(A control − A zero day)], where A is the average absorbance. The IC50 values were calculated through non-linear regression analysis using TableCurve 2D v5.01 (Systat Software Inc., San Jose, CA, USA). All experiments were performed in triplicate and data shown are representative of two or three independent experiments."}, "[5]": {"system": "PC-3", "assay": "SRB cell proliferation inhibition assay", "type": "cell-based", "conditions": "human prostate cancer cells, 72 h", "procedure": "as §2"}, "[6]": {"system": "A549", "assay": "SRB cell proliferation inhibition assay", "type": "cell-based", "conditions": "human lung cancer cells, 72 h", "procedure": "as §2"}, "[7]": {"system": "SNU638", "assay": "SRB cell proliferation inhibition assay", "type": "cell-based", "conditions": "SNU-638, human stomach cancer cells, 72 h", "procedure": "as §2"}, "[8]": {"system": "HCT116", "assay": "SRB cell proliferation inhibition assay", "type": "cell-based", "conditions": "HCT-116, human colon cancer cells, 72 h", "procedure": "as §2"}, "[9]": {"system": "SK-HEP-1", "assay": "SRB cell proliferation inhibition assay", "type": "cell-based", "conditions": "SK-HEP1, human liver cancer cells, 72 h", "procedure": "as §2"}, "[10]": {"target": "T4, CK1δ (Homo sapiens, UniProt P48730)", "T4 construct": "purchased Eurofins DiscoverX Corporation", "T4 sequence (P48730 whole entry)": "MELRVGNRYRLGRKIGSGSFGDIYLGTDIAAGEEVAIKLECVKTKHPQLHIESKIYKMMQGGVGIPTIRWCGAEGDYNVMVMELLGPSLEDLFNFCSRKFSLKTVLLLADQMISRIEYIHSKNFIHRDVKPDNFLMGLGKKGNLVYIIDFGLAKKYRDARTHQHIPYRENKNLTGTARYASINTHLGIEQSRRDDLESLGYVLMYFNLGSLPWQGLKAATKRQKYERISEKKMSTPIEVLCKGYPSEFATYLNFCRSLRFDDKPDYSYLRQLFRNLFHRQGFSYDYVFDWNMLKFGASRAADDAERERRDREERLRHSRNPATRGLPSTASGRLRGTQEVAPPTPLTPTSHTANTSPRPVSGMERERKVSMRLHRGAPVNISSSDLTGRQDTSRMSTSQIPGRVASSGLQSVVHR", "assay": "Kinase inhibition profile, KINOMEscan 11-point dose response", "type": "binding"}, "[11]": {"target": "T5, PDPK1 (Homo sapiens, UniProt O15530)", "T5 construct": "purchased Eurofins DiscoverX Corporation", "T5 sequence (O15530 whole entry)": "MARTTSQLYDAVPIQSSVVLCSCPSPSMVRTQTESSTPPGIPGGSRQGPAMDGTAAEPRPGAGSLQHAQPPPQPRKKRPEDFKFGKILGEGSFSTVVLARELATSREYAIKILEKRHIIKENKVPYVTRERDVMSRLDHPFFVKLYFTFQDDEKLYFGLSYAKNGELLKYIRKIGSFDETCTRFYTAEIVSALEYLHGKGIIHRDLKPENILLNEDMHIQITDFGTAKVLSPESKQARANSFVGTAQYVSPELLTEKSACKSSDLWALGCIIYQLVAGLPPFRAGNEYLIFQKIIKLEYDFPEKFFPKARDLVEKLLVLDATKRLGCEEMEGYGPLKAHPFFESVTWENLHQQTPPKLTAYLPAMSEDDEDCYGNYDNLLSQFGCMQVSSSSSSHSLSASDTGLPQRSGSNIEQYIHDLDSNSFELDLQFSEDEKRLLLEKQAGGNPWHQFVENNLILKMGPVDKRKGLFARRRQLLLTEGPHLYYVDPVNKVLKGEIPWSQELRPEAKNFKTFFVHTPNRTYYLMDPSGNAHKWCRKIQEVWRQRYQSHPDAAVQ", "assay": "Kinome scan", "type": "binding", "conditions": "1000 nM", "procedure": "(§3) The kinome scan assays were carried out at Eurofins DiscoverX Corporation. For kinome scan profiling of compound 1g, it was screened at 1μM against 96 kinases (N = 2 independent experiments). The results for binding interactions are reported as % inhibition, where higher values indicate strong affinity; see the Supporting Information, Table S1 for full kinome profile."}, "[12]": {"target": "T6, TYK2(JH1domain-catalytic) (Homo sapiens, UniProt P29597)", "T6 construct": "TYK2(JH1domain-catalytic); purchased Eurofins DiscoverX Corporation", "assay": "Kinome scan", "type": "binding", "conditions": "1000 nM", "procedure": "as §3"}, "[13]": {"target": "T7, JNK1 (Homo sapiens, UniProt P45983)", "T7 construct": "purchased Eurofins DiscoverX Corporation", "assay": "Kinome scan", "type": "binding", "conditions": "1000 nM", "procedure": "as §3"}, "[14]": {"target": "T8, MAP3K4 (Homo sapiens, UniProt Q9Y6R4)", "T8 construct": "purchased Eurofins DiscoverX Corporation", "assay": "Kinome scan", "type": "binding", "conditions": "1000 nM", "procedure": "as §3"}, "[15]": {"target": "T9, PKAC-alpha (Homo sapiens, UniProt P17612)", "T9 construct": "purchased Eurofins DiscoverX Corporation", "assay": "Kinome scan", "type": "binding", "conditions": "1000 nM", "procedure": "as §3"}, "[16]": {"target": "T10, PAK2 (Homo sapiens, UniProt Q13177)", "T10 construct": "purchased Eurofins DiscoverX Corporation", "T10 sequence (Q13177 whole entry)": "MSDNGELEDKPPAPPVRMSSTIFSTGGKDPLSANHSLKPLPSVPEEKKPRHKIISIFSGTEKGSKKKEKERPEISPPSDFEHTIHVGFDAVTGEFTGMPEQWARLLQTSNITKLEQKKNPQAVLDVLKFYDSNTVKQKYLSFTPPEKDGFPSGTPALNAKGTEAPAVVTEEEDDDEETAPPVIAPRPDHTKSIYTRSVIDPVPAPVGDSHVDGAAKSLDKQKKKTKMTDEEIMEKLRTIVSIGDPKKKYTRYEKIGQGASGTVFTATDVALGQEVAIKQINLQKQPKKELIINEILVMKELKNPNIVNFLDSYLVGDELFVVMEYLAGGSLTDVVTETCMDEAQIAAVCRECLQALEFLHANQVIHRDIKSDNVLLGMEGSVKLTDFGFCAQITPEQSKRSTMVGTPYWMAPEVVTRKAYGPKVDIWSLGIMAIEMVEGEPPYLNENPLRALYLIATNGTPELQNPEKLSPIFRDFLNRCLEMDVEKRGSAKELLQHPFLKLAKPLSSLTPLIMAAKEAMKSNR", "assay": "Kinome scan", "type": "binding", "conditions": "1000 nM", "procedure": "as §3"}, "[17]": {"target": "T11, CDK11 (Homo sapiens, UniProt Q9BWU1)", "T11 construct": "purchased Eurofins DiscoverX Corporation", "assay": "Kinome scan", "type": "binding", "conditions": "1000 nM", "procedure": "as §3"}, "[18]": {"target": "T12, BTK (Homo sapiens, UniProt Q06187)", "T12 construct": "purchased Eurofins DiscoverX Corporation", "T12 sequence (Q06187 whole entry)": "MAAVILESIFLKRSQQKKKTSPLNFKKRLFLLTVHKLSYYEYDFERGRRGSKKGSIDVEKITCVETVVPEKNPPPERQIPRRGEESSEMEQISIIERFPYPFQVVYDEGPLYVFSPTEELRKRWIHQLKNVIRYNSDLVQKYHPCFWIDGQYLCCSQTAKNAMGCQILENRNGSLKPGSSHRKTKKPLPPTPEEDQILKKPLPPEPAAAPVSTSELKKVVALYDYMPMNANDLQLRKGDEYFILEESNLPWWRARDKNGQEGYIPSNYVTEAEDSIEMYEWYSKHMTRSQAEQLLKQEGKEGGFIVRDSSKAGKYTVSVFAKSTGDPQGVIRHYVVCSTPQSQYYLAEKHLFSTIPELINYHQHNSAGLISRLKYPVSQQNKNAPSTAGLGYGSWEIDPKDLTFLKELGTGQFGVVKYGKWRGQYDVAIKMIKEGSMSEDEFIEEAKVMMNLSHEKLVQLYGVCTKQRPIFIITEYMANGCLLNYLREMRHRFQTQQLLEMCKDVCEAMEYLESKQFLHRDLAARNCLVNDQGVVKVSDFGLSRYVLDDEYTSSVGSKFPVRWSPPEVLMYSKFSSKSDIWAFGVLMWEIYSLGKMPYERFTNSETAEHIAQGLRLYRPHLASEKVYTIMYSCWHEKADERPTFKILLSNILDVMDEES", "assay": "Kinome scan", "type": "binding", "conditions": "1000 nM", "procedure": "as §3"}, "[19]": {"target": "T13, ROCK2 (Homo sapiens, UniProt O75116)", "T13 construct": "purchased Eurofins DiscoverX Corporation", "assay": "Kinome scan", "type": "binding", "conditions": "1000 nM", "procedure": "as §3"}, "[20]": {"target": "T14, ADCK3 (Homo sapiens, UniProt Q8NI60)", "T14 construct": "purchased Eurofins DiscoverX Corporation", "T14 sequence (Q8NI60 163-647)": "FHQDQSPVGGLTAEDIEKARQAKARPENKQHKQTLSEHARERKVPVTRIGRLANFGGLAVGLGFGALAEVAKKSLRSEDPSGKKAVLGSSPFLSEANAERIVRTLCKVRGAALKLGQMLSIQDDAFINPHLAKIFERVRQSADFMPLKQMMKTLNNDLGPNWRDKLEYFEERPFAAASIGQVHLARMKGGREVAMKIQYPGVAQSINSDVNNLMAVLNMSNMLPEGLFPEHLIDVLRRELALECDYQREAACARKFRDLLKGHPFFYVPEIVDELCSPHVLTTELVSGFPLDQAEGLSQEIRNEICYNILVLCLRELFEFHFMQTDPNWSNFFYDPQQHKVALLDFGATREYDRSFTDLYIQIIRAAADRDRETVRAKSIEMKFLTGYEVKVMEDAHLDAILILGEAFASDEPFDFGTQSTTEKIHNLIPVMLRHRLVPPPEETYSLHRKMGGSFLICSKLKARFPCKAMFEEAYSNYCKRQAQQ", "assay": "Kinome scan", "type": "binding", "conditions": "1000 nM", "procedure": "as §3"}, "[21]": {"target": "T15, VEGFR2 (Homo sapiens, UniProt P35968)", "T15 construct": "purchased Eurofins DiscoverX Corporation", "assay": "Kinome scan", "type": "binding", "conditions": "1000 nM", "procedure": "as §3"}, "[22]": {"target": "T16, EGFR (Homo sapiens, UniProt P00533)", "T16 construct": "purchased Eurofins DiscoverX Corporation", "T16 sequence (P00533 25-1210)": "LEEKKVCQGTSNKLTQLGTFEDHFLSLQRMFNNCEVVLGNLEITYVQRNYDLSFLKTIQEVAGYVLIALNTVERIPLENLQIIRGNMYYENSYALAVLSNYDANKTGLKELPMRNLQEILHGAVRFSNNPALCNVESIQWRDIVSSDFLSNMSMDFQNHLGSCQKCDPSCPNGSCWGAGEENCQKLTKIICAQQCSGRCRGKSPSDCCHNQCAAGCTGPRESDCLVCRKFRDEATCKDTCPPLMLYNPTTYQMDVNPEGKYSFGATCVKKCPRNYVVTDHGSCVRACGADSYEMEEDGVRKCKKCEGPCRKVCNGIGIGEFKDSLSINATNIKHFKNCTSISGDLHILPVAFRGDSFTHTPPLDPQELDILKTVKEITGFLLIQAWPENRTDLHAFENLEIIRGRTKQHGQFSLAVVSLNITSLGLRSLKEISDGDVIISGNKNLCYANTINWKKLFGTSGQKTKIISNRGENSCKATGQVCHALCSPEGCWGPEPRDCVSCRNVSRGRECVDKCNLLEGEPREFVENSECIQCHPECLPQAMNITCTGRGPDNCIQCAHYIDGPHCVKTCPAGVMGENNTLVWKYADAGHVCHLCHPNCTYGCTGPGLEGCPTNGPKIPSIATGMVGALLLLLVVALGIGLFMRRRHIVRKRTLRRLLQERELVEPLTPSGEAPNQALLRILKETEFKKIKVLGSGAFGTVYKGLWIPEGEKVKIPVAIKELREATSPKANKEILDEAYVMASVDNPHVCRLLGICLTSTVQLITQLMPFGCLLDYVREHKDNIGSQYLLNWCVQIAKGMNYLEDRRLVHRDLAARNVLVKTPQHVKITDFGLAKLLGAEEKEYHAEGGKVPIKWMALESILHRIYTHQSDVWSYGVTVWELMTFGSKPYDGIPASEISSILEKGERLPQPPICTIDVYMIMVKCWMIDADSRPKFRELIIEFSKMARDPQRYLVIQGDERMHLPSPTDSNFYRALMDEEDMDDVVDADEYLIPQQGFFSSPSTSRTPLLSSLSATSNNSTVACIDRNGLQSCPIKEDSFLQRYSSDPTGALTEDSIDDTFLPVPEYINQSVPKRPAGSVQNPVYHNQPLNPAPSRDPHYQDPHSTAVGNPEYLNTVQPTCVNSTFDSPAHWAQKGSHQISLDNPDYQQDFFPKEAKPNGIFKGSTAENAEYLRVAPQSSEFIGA", "assay": "Kinome scan", "type": "binding", "conditions": "1000 nM", "procedure": "as §3"}, "[23]": {"target": "T17, ERBB2 (Homo sapiens, UniProt P04626)", "T17 construct": "purchased Eurofins DiscoverX Corporation", "assay": "Kinome scan", "type": "binding", "conditions": "1000 nM", "procedure": "as §3"}, "[24]": {"assay": "Metabolic stability in human liver microsomes", "type": "in vitro ADME", "conditions": "% remaining during 30 min, 1 μM"}, "[25]": {"target": "T18, CYP3A4 (Homo sapiens, UniProt P08684)", "T18 construct": "Human liver microsomes (0.25 mg/mL); from tissue; host or cells: human liver microsomes", "assay": "CYP inhibition assay", "type": "in vitro ADME", "conditions": "human liver microsomes"}, "[26]": {"system": "KM12", "assay": "Antiproliferative activity against KM12", "type": "cell-based", "conditions": "Homo sapiens, colon cancer cell line highly expressing NTRK1/2/3 and DYRK3, read-out: IC50 cell growth of KM12"}},
  "data": [
    {"smiles": "C#Cc1cn([C@@H]2S[C@H](CO)[C@@H](O)[C@H]2O)c2ncnc(N)c12", "note": "[Compound 1g, (2R,3R,4S,5R)-2-(4-Amino-5-ethynyl-7H-pyrrolo[2,3-d]pyrimidin-7-yl)-5-(hydroxymethyl)tetrahydrothiophene-3,4-diol]", "values": [
      {"measurement": "IC50", "setting": "[1]", "value": "> 20000", "unit": "nM"},
      {"measurement": "IC50", "setting": "[2]", "value": "> 20000", "unit": "nM"},
      {"measurement": "IC50", "setting": "[3]", "value": "> 20000", "unit": "nM"},
      {"measurement": "IC50", "setting": "[4]", "value": 50, "unit": "nM"},
      {"measurement": "IC50", "setting": "[5]", "value": 4, "unit": "nM"},
      {"measurement": "IC50", "setting": "[6]", "value": 60, "unit": "nM"},
      {"measurement": "IC50", "setting": "[7]", "value": 30, "unit": "nM"},
      {"measurement": "IC50", "setting": "[8]", "value": 30, "unit": "nM"},
      {"measurement": "IC50", "setting": "[9]", "value": 50, "unit": "nM"},
      {"measurement": "IC50", "setting": "[10]; 11-point 3-fold serial dilution", "value": 80, "unit": "nM"},
      {"measurement": "Ki", "setting": "[10]; by Cheng-Prusoff equation", "value": 80, "unit": "nM"},
      {"measurement": "inhibition at 1 µM", "setting": "[11]", "value": 11, "unit": "%"},
      {"measurement": "inhibition at 1 µM", "setting": "[12]", "value": 70, "unit": "%"},
      {"measurement": "inhibition at 1 µM", "setting": "[13]", "value": 17, "unit": "%"},
      {"measurement": "inhibition at 1 µM", "setting": "[14]", "value": 29, "unit": "%"},
      {"measurement": "inhibition at 1 µM", "setting": "[15]", "value": 11, "unit": "%"},
      {"measurement": "inhibition at 1 µM", "setting": "[16]", "value": 44, "unit": "%"},
      {"measurement": "inhibition at 1 µM", "setting": "[17]", "value": 72.1, "unit": "%"},
      {"measurement": "inhibition at 1 µM", "setting": "[18]", "value": 0, "unit": "%"},
      {"measurement": "inhibition at 1 µM", "setting": "[19]", "value": 27, "unit": "%"},
      {"measurement": "inhibition at 1 µM", "setting": "[20]", "value": 8, "unit": "%"},
      {"measurement": "inhibition at 1 µM", "setting": "[21]", "value": 30, "unit": "%"},
      {"measurement": "inhibition at 1 µM", "setting": "[22]", "value": 0, "unit": "%"},
      {"measurement": "inhibition at 1 µM", "setting": "[23]", "value": 15, "unit": "%"},
      {"measurement": "Metabolic Stability (%)", "setting": "[24]", "value": 82.3, "unit": "%"},
      {"measurement": "IC50", "setting": "[25]", "value": "> 20000", "unit": "nM"},
      {"measurement": "IC50", "setting": "[26]", "value": 70, "unit": "nM"}
    ]}
  ]
}
